Measurements: patent publication US20240016938A1, “METHODS FOR INCREASING THE BIOAVAILABILITY OF NUCLEOSIDE MEDICINAL AGENTS” (ZOGENIX MDS, INC., priority 2022, published 2024)
Like-named read-outs stand apart in the source and are kept apart here.

Assay: Phase 1 open-label, fixed-sequence, single-ascending dose and food-effect PK study of MT1621 in adult healthy subjects
Format: in vivo, human
Procedure: A phase 1 study was conducted as an open-label, fixed-sequence, single-ascending dose study in adult healthy subjects designed to evaluate the safety, tolerability, PK, and food-effect of MT1621 (dC and dT). To evaluate the PK of MT1621, the combination was administered at three different doses. Treatment A was a 43.3 mg/kg dose of MT1621 (i.e., a 43.3 mg/kg dose of dC and a 43.3 mg/kg dose of dT (each approximately equivalent to 1 dose of a 130 mg/kg daily dose, divided 3 times daily [TID])) in healthy male and female subjects under fasting conditions; Treatment B was an 86.7 mg/kg dose of MT1621 (i.e., a 86.7 mg/kg dose of dC and a 86.7 mg/kg dose of dT (each approximately equivalent to 1 dose of a 260 mg/kg daily dose, divided TID)) in healthy male and female subjects under fasting conditions; and Treatment C was a 133.3 mg/kg dose of MT1621 (i.e., a 133.3 mg/kg dose of dC and a 133.3 mg/kg dose of dT (each approximately equivalent to a 400 mg/kg daily dose, divided TID)) in healthy male and female subjects under fasting conditions. Additionally, Treatment D was a 133.3 mg/kg dose of MT1621 (i.e., a 133.3 mg/kg dose of dC and a 133.3 mg/kg dose of dT (each approximately equivalent to a 400 mg/kg daily dose, divided TID) in healthy male and female subjects under fed conditions, to determine the effect of a high-fat meal on the single-dose PK of MT1621.
Methodology of open-label, Phase 1, fixed-sequence, single-dose, dose escalation, and food-effect study. Fourteen (14) healthy, adult, male and female subjects were enrolled with an approximately equal distribution (at least 40% of each sex) between male and female subjects.
On Day 1 of each period, subjects received 1 of 3 dose levels of MT1621 under fasting conditions as escalating single doses over 3 periods in Part A (Treatments A, B, and C in Periods 1, 2, and 3, respectively) and with the highest dose under fed conditions in Part B (Treatment D in Period 4). Four (4) of 14 subjects that completed Part A (Periods 1 to 3) could not complete Part B (Treatment D in Period 4) during the original confinement. These subjects were then to return to the clinical unit and continue the study to complete Part B (Treatment D in Period 4); 2 of the 4 subjects completed Part B.
Each treatment was assessed by blood and urine PK sampling pre-dose and up to 48 hours post-dose for the determination of dC and dT in plasma and urine PK, and possible future analysis of blood for PD biomarkers.
A washout period of at least 2 days without drug between each treatment administration was maintained. Fourteen subjects were enrolled in the study, and 12 subjects completed the study. Data from 14 subjects were included in the PK analysis of Periods 1, 2, and 3 and data from 12 subjects were included in the PK analysis of Period 4.
Study drug administered in Example 1 was 0.5 g dC and 0.5 g dT powders for solution and were reconstituted in juice or water.
After reconstitution in a fixed amount of water or juice, the solution was administered via measured volume to provide the amounts specified in Studies A, B, C, and D.
MT1621 was administered orally at Hour 0 on Day 1, following an overnight fast for Treatments A, B, and C and within 5 minutes of consumption of a standardized high-fat breakfast (which included eggs, bacon, and toast with butter) for Treatment D.
Blood samples for the determination of plasma dC and dT concentrations were collected on Day 1 of each period at pre-dose (0 hour), and at 0.25, 0.5, 1, 1.5, 2, 3, 4, 5, 6, 8, 12, 24, and 48 after study drug administration. In Period 4, blood was collected for the 48-hour PK sample; for Periods 1 through 3, the 48-hour PK sample was collected at the same time as the pre-dose PK sample from the next period so only 1 sample was collected for both PK time points. It should be pointed out that Periods 1-3 used sampling up to 24 hours for PK while Period 4 used the complete 48-hour profile. […]

[1] = 100*(test/reference): 133.3 mg/kg MT1621 fed vs fasted, baseline-adjusted plasma
[2] = Treatment A: single 43.3 mg/kg MT1621, fasted, baseline-adjusted plasma, arithmetic mean ± SD
[3] = Treatment B: single 86.7 mg/kg MT1621, fasted, baseline-adjusted plasma, arithmetic mean ± SD
[4] = Treatment D: single 133.3 mg/kg MT1621, fed (high-fat breakfast), baseline-adjusted plasma, arithmetic mean ± SD

Structure (SMILES): Nc1ccn([C@H]2C[C@H](O)[C@@H](CO)O2)c(=O)n1 [dC, β-D-2′-deoxycytidine]
- increase in baseline adjusted AUC, fed compared to fasted (133.3 mg/kg MT1621, plasma): 137%
- increase in baseline adjusted Cmax, fed compared to fasted (133.3 mg/kg MT1621, plasma): 79%
- AUC0-t GMR (%) [1]: 237.18%
- Cmax GMR (%) [1]: 178.88%
- AUC%extrap [2]: 11.36 ± 8.5281%
- Kel [2]: 0.1280 ± 0.1276 h⁻¹
- AUC%extrap [3]: 12.46 ± 13.194%
- Kel [3]: 0.2030 ± 0.1938 h⁻¹
- AUC%extrap (Treatment C: single 133.3 mg/kg MT1621, fasted, baseline-adjusted plasma, arithmetic mean ± SD): 1.152 ± 1.0948%
- AUC%extrap [4]: 3.567 ± 5.0087%
- Kel [4]: 0.7971 ± 0.3869 h⁻¹
- dose proportionality of Cmax (across the 3 fasted dose levels (Treatments A, B, C), plasma): less than dose-proportional
- Vd/F (both sexes, human, oral, Treatment D: single 133.3 mg/kg MT1621, fed (high-fat breakfast), baseline-adjusted plasma, arithmetic mean ± SD, read-out: Vz/F): 1660 ± 1470 L/kg
- half-life (both sexes, human, plasma, oral, 43.3 mg/kg, 43.3 mg/kg dose level, read-out: geometric mean elimination half-life (converted)): 2.16 h
- half-life (both sexes, human, plasma, oral, 43.3 mg/kg, Treatment A: single 43.3 mg/kg MT1621, fasted, baseline-adjusted plasma, arithmetic mean ± SD, read-out: t½ (converted)): 10.3 ± 8.2 h
- AUC(0-inf) (both sexes, human, plasma, oral, 43.3 mg/kg, Treatment A: single 43.3 mg/kg MT1621, fasted, baseline-adjusted plasma, geometric mean (geometric CV %)): 48.4 ng·h/mL
- AUC(0-t) (both sexes, human, plasma, oral, 43.3 mg/kg, Treatment A: single 43.3 mg/kg MT1621, fasted, baseline-adjusted plasma, geometric mean (geometric CV %), read-out: AUC0-4): 7.84 ng·h/mL
- AUC(0-t) (both sexes, human, plasma, oral, 43.3 mg/kg, Treatment A: single 43.3 mg/kg MT1621, fasted, baseline-adjusted plasma, geometric mean (geometric CV %), read-out: AUC0-6): 9.58 ng·h/mL
- AUC(0-t) (both sexes, human, plasma, oral, 43.3 mg/kg, Treatment A: single 43.3 mg/kg MT1621, fasted, baseline-adjusted plasma, geometric mean (geometric CV %), read-out: AUC0-48): 19.6 ng·h/mL
- AUC(0-t) (both sexes, human, plasma, oral, 43.3 mg/kg, Treatment A: single 43.3 mg/kg MT1621, fasted, baseline-adjusted plasma, geometric mean (geometric CV %), read-out: AUC0-t): 13.5 ng·h/mL
- Cmax (both sexes, human, plasma, oral, 43.3 mg/kg, Treatment A: single 43.3 mg/kg MT1621, fasted, baseline-adjusted plasma, geometric mean (geometric CV %), read-out: Cmax): 3.53 ng/mL
- Tmax (both sexes, human, plasma, oral, 43.3 mg/kg, Treatment A: single 43.3 mg/kg MT1621, fasted, baseline-adjusted plasma, median (minimum, maximum), read-out: Tmax): 1.25 h
- half-life (both sexes, human, plasma, oral, 86.7 mg/kg, 86.7 mg/kg dose level, read-out: geometric mean elimination half-life (converted)): 1.44 h
- half-life (both sexes, human, plasma, oral, 86.7 mg/kg, Treatment B: single 86.7 mg/kg MT1621, fasted, baseline-adjusted plasma, arithmetic mean ± SD, read-out: t½ (converted)): 8.62 ± 8.68 h
- AUC(0-inf) (both sexes, human, plasma, oral, 86.7 mg/kg, Treatment B: single 86.7 mg/kg MT1621, fasted, baseline-adjusted plasma, geometric mean (geometric CV %)): 26.6 ng·h/mL
- AUC(0-t) (both sexes, human, plasma, oral, 86.7 mg/kg, Treatment B: single 86.7 mg/kg MT1621, fasted, baseline-adjusted plasma, geometric mean (geometric CV %), read-out: AUC0-4): 10.3 ng·h/mL
- AUC(0-t) (both sexes, human, plasma, oral, 86.7 mg/kg, Treatment B: single 86.7 mg/kg MT1621, fasted, baseline-adjusted plasma, geometric mean (geometric CV %), read-out: AUC0-6): 12.8 ng·h/mL
- AUC(0-t) (both sexes, human, plasma, oral, 86.7 mg/kg, Treatment B: single 86.7 mg/kg MT1621, fasted, baseline-adjusted plasma, geometric mean (geometric CV %), read-out: AUC0-48): 29.4 ng·h/mL
- AUC(0-t) (both sexes, human, plasma, oral, 86.7 mg/kg, Treatment B: single 86.7 mg/kg MT1621, fasted, baseline-adjusted plasma, geometric mean (geometric CV %), read-out: AUC0-t): 23.2 ng·h/mL
- Cmax (both sexes, human, plasma, oral, 86.7 mg/kg, Treatment B: single 86.7 mg/kg MT1621, fasted, baseline-adjusted plasma, geometric mean (geometric CV %), read-out: Cmax): 4.67 ng/mL
- Tmax (both sexes, human, plasma, oral, 86.7 mg/kg, Treatment B: single 86.7 mg/kg MT1621, fasted, baseline-adjusted plasma, median (minimum, maximum), read-out: Tmax): 1.51 h
- half-life (both sexes, human, plasma, oral, 133.3 mg/kg, 133.3 mg/kg dose level, read-out: geometric mean elimination half-life (converted)): 3.01 h
- AUC(0-t) (both sexes, human, plasma, oral, 133.3 mg/kg, Treatment C, fasted, baseline-adjusted plasma, ANOVA on ln-transformed data, read-out: AUC0-t Geometric LSM, 133.3 mg/kg MT1621, Fasted (Reference)): 30.8 ng·h/mL
- Cmax (both sexes, human, plasma, oral, 133.3 mg/kg, Treatment C, fasted, baseline-adjusted plasma, ANOVA on ln-transformed data, read-out: Cmax Geometric LSM, 133.3 mg/kg MT1621, Fasted (Reference)): 7.17 ng/mL
- half-life (both sexes, human, plasma, oral, 133.3 mg/kg, Treatment C: single 133.3 mg/kg MT1621, fasted, baseline-adjusted plasma, arithmetic mean ± SD, read-out: t½ (converted)): 2.67 ± 1.98 h
- AUC(0-inf) (both sexes, human, plasma, oral, 133.3 mg/kg, Treatment C: single 133.3 mg/kg MT1621, fasted, baseline-adjusted plasma, geometric mean (geometric CV %)): 22.5 ng·h/mL
- AUC(0-t) (both sexes, human, plasma, oral, 133.3 mg/kg, Treatment C: single 133.3 mg/kg MT1621, fasted, baseline-adjusted plasma, geometric mean (geometric CV %), read-out: AUC0-4): 17.1 ng·h/mL
- AUC(0-t) (both sexes, human, plasma, oral, 133.3 mg/kg, Treatment C: single 133.3 mg/kg MT1621, fasted, baseline-adjusted plasma, geometric mean (geometric CV %), read-out: AUC0-6): 21.1 ng·h/mL
- AUC(0-t) (both sexes, human, plasma, oral, 133.3 mg/kg, Treatment C: single 133.3 mg/kg MT1621, fasted, baseline-adjusted plasma, geometric mean (geometric CV %), read-out: AUC0-48): 53.1 ng·h/mL
- AUC(0-t) (both sexes, human, plasma, oral, 133.3 mg/kg, Treatment C: single 133.3 mg/kg MT1621, fasted, baseline-adjusted plasma, geometric mean (geometric CV %), read-out: AUC0-t): 30.8 ng·h/mL
- Cmax (both sexes, human, plasma, oral, 133.3 mg/kg, Treatment C: single 133.3 mg/kg MT1621, fasted, baseline-adjusted plasma, geometric mean (geometric CV %), read-out: Cmax): 7.17 ng/mL
- Tmax (both sexes, human, plasma, oral, 133.3 mg/kg, Treatment C: single 133.3 mg/kg MT1621, fasted, baseline-adjusted plasma, median (minimum, maximum), read-out: Tmax): 1.26 h
- AUC(0-t) (both sexes, human, plasma, oral, 133.3 mg/kg, Treatment D, fed, baseline-adjusted plasma, ANOVA on ln-transformed data, read-out: AUC0-t Geometric LSM, 133.3 mg/kg MT1621, Fed (Test)): 73 ng·h/mL
- Cmax (both sexes, human, plasma, oral, 133.3 mg/kg, Treatment D, fed, baseline-adjusted plasma, ANOVA on ln-transformed data, read-out: Cmax Geometric LSM, 133.3 mg/kg MT1621, Fed (Test)): 12.8 ng/mL
- half-life (both sexes, human, plasma, oral, 133.3 mg/kg, Treatment D: single 133.3 mg/kg MT1621, fed (high-fat breakfast), baseline-adjusted plasma, arithmetic mean ± SD, read-out: t½ (converted)): 0.986 ± 0.478 h
- AUC(0-inf) (both sexes, human, plasma, oral, 133.3 mg/kg, Treatment D: single 133.3 mg/kg MT1621, fed (high-fat breakfast), baseline-adjusted plasma, geometric mean (geometric CV %)): 138 ng·h/mL
- AUC(0-t) (both sexes, human, plasma, oral, 133.3 mg/kg, Treatment D: single 133.3 mg/kg MT1621, fed (high-fat breakfast), baseline-adjusted plasma, geometric mean (geometric CV %), read-out: AUC0-4): 31.7 ng·h/mL
- AUC(0-t) (both sexes, human, plasma, oral, 133.3 mg/kg, Treatment D: single 133.3 mg/kg MT1621, fed (high-fat breakfast), baseline-adjusted plasma, geometric mean (geometric CV %), read-out: AUC0-6): 48.2 ng·h/mL
- AUC(0-t) (both sexes, human, plasma, oral, 133.3 mg/kg, Treatment D: single 133.3 mg/kg MT1621, fed (high-fat breakfast), baseline-adjusted plasma, geometric mean (geometric CV %), read-out: AUC0-48): 55.8 ng·h/mL
- AUC(0-t) (both sexes, human, plasma, oral, 133.3 mg/kg, Treatment D: single 133.3 mg/kg MT1621, fed (high-fat breakfast), baseline-adjusted plasma, geometric mean (geometric CV %), read-out: AUC0-t): 73 ng·h/mL
- Cmax (both sexes, human, plasma, oral, 133.3 mg/kg, Treatment D: single 133.3 mg/kg MT1621, fed (high-fat breakfast), baseline-adjusted plasma, geometric mean (geometric CV %), read-out: Cmax): 12.8 ng/mL
- Tmax (both sexes, human, plasma, oral, 133.3 mg/kg, Treatment D: single 133.3 mg/kg MT1621, fed (high-fat breakfast), baseline-adjusted plasma, median (minimum, maximum), read-out: Tmax): 2.02 h
- Tmax (both sexes, human, plasma, oral, under fasted conditions, read-out: median Tmax): 1 to 1.25 h
- Tmax (both sexes, human, plasma, oral, under fed conditions, read-out: median Tmax): 1 h
- plasma exposure compared to endogenous (baseline) concentrations (following MT1621, all 3 dose levels): consistently higher
